Measured values reported in ChEMBL document CHEMBL5120764, “Isarubrolone C Promotes Autophagic Degradation of Virus Proteins via Activating ATG10S in HepG2 Cells” (J Nat Prod, 2022).
The source made the active and inactive calls.

Experiments:
Type in all cases: functional, cell-based
[1] = system: HepG2; assay: Induction of autophagy in human HepG2 cells transfected with HCV sub-replicon assessed as decrease in HCV-CORE protein level upto 10 uM and measured after 6 hrs by western blot analysis; conditions: DDE = dose-dependent effect
[2] = system: HepG2; assay: Induction of autophagy in human HepG2 cells transfected with HCV sub-replicon assessed as decrease in HCV-NS5B protein level upto 10 uM and measured after 6 hrs by western blot analysis; conditions: DDE = dose-dependent effect
[3] = system: HepG2; assay: Induction of autophagy in human HepG2 cells co-transfected with ZIKV-NS5 assessed as decrease in ZIKV-NS5 protein level upto 10 uM and measured after 6 hrs by western blot analysis; conditions: DDE = dose-dependent effect
[4] = system: HepG2; assay: Effect on P62 degradation in human HepG2 cells at 10 uM pretreated with proteosome inhibitor MG132 for 12 hrs followed by compound addition and measured after 24 hrs by western blot analysis
[5] = system: HepG2; assay: Induction of autophagy in human HepG2 cells transfected with HCV subgenomic replicon assessed as HCV-NS5B/ATG10/ATG10S combination at 10 uM incubated for 24 hrs in presence of anti-LAMP2 antibodies by co-immunoprecipitation assay
[6] = system: HepG2; assay: Induction of autophagy in human HepG2 cells transfected with HCV subgenomic replicon assessed as HCV-CORE/ATG10/ATG10S combination at 10 uM incubated for 24 hrs in presence of anti-LAMP2 antibodies by co-immunoprecipitation assay
[7] = system: HepG2; assay: Induction of autophagy in human HepG2 cells transfected with HCV subgenomic replicon assessed as HCV-NS5B/LC3B combination at 10 uM incubated for 24 hrs in presence of anti-LAMP2 antibodies by co-immunoprecipitation assay
[8] = system: HepG2; assay: Induction of autophagy in human HepG2 cells transfected with HCV subgenomic replicon assessed as HCV-CORE/LC3B combination at 10 uM incubated for 24 hrs in presence of anti-LAMP2 antibodies by co-immunoprecipitation assay
[9] = system: HepG2; assay: Induction of autophagy in human HepG2 cells transfected with HCV subgenomic replicon assessed as HCV-NS5B/P62 combination at 10 uM incubated for 24 hrs in presence of anti-LAMP2 antibodies by co-immunoprecipitation assay
[10] = system: HepG2; assay: Upregulation of ATG10/ATG10S mRNA level in human HepG2 cells transfected with HCV sub-replicon upto 10 uM by RT-PCR analysis; conditions: DDE = dose-dependent effect
[11] = system: HepG2; assay: Downregulation of HBVx in human HepG2 cells co-transfected with HBVx and ATG10-misMO upto 10 uM incubated for 24 hrs by western blot analysis
[12] = system: HepG2; assay: Downregulation of ZIKV-NS5 in human HepG2 cells co-transfected with ZIKV-NS5 and ATG10-misMO upto 10 uM incubated for 24 hrs by western blot analysis
[13] = system: HepG2; assay: Downregulation of HCV-CORE in human HepG2 cells transfected with HCV-subreplicon upto 10 uM incubated for 24 hrs by western blot analysis
[14] = system: HepG2; assay: Downregulation of ZIKV-NS5 in human HepG2 cells transfected with ZIKV-NS5 upto 10 uM incubated for 24 hrs by western blot analysis
[15] = system: HepG2; assay: Upregulation of endogenous ATG10S activated co-localisation of HBx with LC3B in human HepG2 cells co-transfected with HBx and ATG10-sMO by cellular immunofluorescence assay
[16] = system: HepG2; assay: Upregulation of endogenous ATG10S activated co-localisation of ZIKV-NS5 with LC3B in human HepG2 cells co-transfected with ZIKV-NS5 and ATG10-misMO by cellular immunofluorescence assay
[17] = system: HepG2; assay: Upregulation of endogenous ATG10S activated co-localisation of HBx with LAMP2 in human HepG2 cells co-transfected with HBx and ATG10-sMO by cellular immunofluorescence assay
[18] = system: HepG2; assay: Upregulation of IL28A mRNA expression level in human HepG2 cells transfected with HCV sub-replicon upto 10 uM by qRT-PCR analysis; conditions: DDE = dose-dependent effect
[19] = system: HepG2; assay: Upregulation of IL28A mRNA expression level in human HepG2 cells transfected with HIV-RT upto 10 uM by qRT-PCR analysis; conditions: DDE = dose-dependent effect
[20] = system: HepG2; assay: Induction of autophagy in human HepG2 cells co-transfected with ATG10 or ATG10S assessed as increase in ATG10/ATG10S protein level upto 10 uM and measured after 6 hrs by western blot analysis; conditions: DDE = dose-dependent effect
[21] = system: HepG2; assay: Induction of autophagy in human HepG2 cells transfected with HBx assessed as increase in HBx-P62 interaction level at 10 uM incubated for 24 hrs in presence of anti-Flag antibodies by co-immunoprecipitation assay
[22] = system: HepG2; assay: Induction of autophagy in human HepG2 cells transfected with ZIKV-NS5 assessed as increase in ZIKV-NS5-LC3B interaction level at 10 uM incubated for 24 hrs in presence of anti-Flag antibodies by co-immunoprecipitation assay
[23] = system: HepG2; assay: Induction of autophagy in human HepG2 cells transfected with ZIKV-NS5 assessed as increase in ZIKV-NS5-P62 interaction level at 10 uM incubated for 24 hrs in presence of anti-Flag antibodies by co-immunoprecipitation assay
[24] = system: HepG2; assay: Induction of autophagy in human HepG2 cells transfected with ZIKV-NS5 assessed as increase in ZIKV-NS5-LAMP2 interaction level at 10 uM incubated for 24 hrs in presence of anti-Flag antibodies by co-immunoprecipitation assay
[25] = system: HepG2; assay: Induction of autophagy in human HepG2 cells transfected with HIV-RT assessed as increase in HIV-RT-P62 interaction level at 10 uM incubated for 24 hrs in presence of anti-Flag antibodies by co-immunoprecipitation assay
[26] = system: HepG2; assay: Induction of autophagy in human HepG2 cells transfected with HCV subgenomic replicon assessed as HCV-NS5B/LAMP2 combination at 10 uM incubated for 24 hrs in presence of anti-LC3B antibodies by co-immunoprecipitation assay
[27] = system: HepG2; assay: Upregulation of endogenous ATG10S activated co-localisation of HCV-NS5B with LC3B in human HepG2 cells co-transfected with HCV sub-replicon and ATG10-misMO by cellular immunofluorescence assay
[28] = system: HepG2; assay: Upregulation of HCV-CORE in human HepG2 cells transfected with HCV sub-replicon and gene knockdown by IL28A morpholinos at 10 uM incubated for 24 hrs by western blot analysis
[29] = system: HepG2; assay: Upregulation of P62 in human HepG2 cells transfected with HBx and gene knockdown by IL28A morpholinos at 10 uM incubated for 24 hrs by western blot analysis
[30] = system: HepG2; assay: Upregulation of ZIKV-NS5 in human HepG2 cells transfected with ZIKV-NS5 and gene knockdown by IL28A morpholinos at 10 uM incubated for 24 hrs by western blot analysis
[31] = system: HepG2; assay: Upregulation of LC3B in human HepG2 cells transfected with HIV-RT and gene knockdown by IL28A morpholinos at 10 uM incubated for 24 hrs by western blot analysis
[32] = system: HepG2; assay: Upregulation of HIV-RT in human HepG2 cells transfected with HIV-RT and gene knockdown by IL28A morpholinos at 10 uM incubated for 24 hrs by western blot analysis

Measured: Activity

CC[C@@H](O)c1nc(C)cc2c1C(=O)c1cc(=O)c3c(c(O)c1-2)O[C@@H]1O[C@H](C)[C@@H](OC)[C@@H](O)[C@]31O
active: [1] Dde | [2] Dde | [3] Dde | [4] | [5] | [6] | [7] | [8] | [9] | [10] Dde | [11] | [12] | [13] | [14] | [15] | [16] | [17] | [18] Dde | [19] Dde | [20] Dde | [21] | [22] | [23] | [24] | [25] | [26] | [27] | [28] | [29] | [30] | [31] | [32]
